Source: US20240315947A1, “COSMETIC COMPOSITION COMPRISING MOLECULAR AGGREGATES OF BILE ACIDS OR BILE ACID SALTS” (SCAI THERAPEUTICS CO., LTD., priority 2021, published 2024)
Read-outs that look alike come from different tables or passages of the source.

Tests used:
[1] = system: skin, subcutaneous tissue of the interscapular region; test: SD rat histological analysis (H&E, Masson's trichome staining); type: in vivo, SD rats; conditions: subcutaneous injection, 500 μL of 1%
Source text: The interscapular region (back of the neck near the ear) of 10-week-old SD rats (280-350 g) with sufficient subcutaneous adipose tissue was shaved and anesthetized. […].
Then, tissues (skin, subcutaneous tissue) of the interscapular region were collected, fixed, and subjected to H&E staining and Masson's trichome staining. Tissue changes were investigated through microscopic observation.

[2] = design: species or system SD rats; conditions: rat, in vivo
Source text: The interscapular region (back of the neck near the ear) of 10-week-old SD rats (280-350 g) with sufficient subcutaneous adipose tissue was shaved and anesthetized.

3T3-L1 preadipocytes = test: Preadipocyte cytotoxicity (cell counting kit-8); conditions: treated for 4 hours
Experimental: 3T3-L1 preadipocytes were inoculated into a 96 well plate at 5×10^3 per well, grown in medium (high glucose DMEM, 10% bovine calf serum, 1% penicillin/streptomycin) for 16 hours. The drug was prepared to contain 0.04% and 0.08%, respectively, and then treated for 4 hours. After adding 10 μl of Dojingo CK04-11 cell counting kit-8 to each well according to the manual, reacting for 2 hours, the absorbance at 450 nm was measured with a spectrophotometer to compare preadipocyte cytotoxicity.

| Compound | tissue damage (H&E staining) [1] | tissue findings at section creation (Masson's trichome staining) [1] | amount of DCA in the subcutaneous tissue [2] | amount of DCA in the subcutaneous tissue ([2]; sc) | preadipocyte cytotoxicity (comparison between test materials) (3T3-L1 preadipocytes; 0.04%) | survival rate of preadipocytes (3T3-L1 preadipocytes; 0.08%) |
| --- | --- | --- | --- | --- | --- | --- |
| C[C@H](CCC(=O)O)[C@H]1CC[C@H]2[C@@H]3CC[C@@H]4C[C@H](O)CC[C@]4(C)[C@H]3C[C@H](O)[C@]12C [deoxycholic acid] | severe tissue damage | hematoma and edema | increased over time | gradually decreased | – | – |
| Sodium deoxycholate [precursor of deoxycholic acid salt] | – | – | – | – | the same | 24.6% |
